These results are taken from ChEMBL document CHEMBL5442741, “ASAP - In vitro kinase profile” (2024).

SMILES strings stand for the structures. Several values for one entry are separate records, joined by “and”; a condition that tells them apart may be missing. Equal values may be shown once.

Assay [1] concerns the target PI3K p110 beta/p85 alpha (Homo sapiens) (UniProt P27986+P42338). As to the kind of experiment: Enzymatic radiometric [Km ATP] KinaseProfiler LeadHunter assay, kinase: PI3 Kinase (p110-beta/p85-alpha), catalogue number: 14-603KP The assay has been performed by Eurofins Discovery. In kind it is protein-complex assay. As to conditions: ATP concentration 200.0 uM, Test compound concentration 10.0 uM.

Assay [2] deals with Dual specificity mitogen-activated protein kinase kinase 1 (Homo sapiens) (UniProt Q02750). As to the kind of experiment: Enzymatic radiometric [Km ATP] KinaseProfiler LeadHunter assay, kinase: MEK1, catalogue number: 14-429KP The assay has been performed by Eurofins Discovery. As to conditions: ATP concentration 10.0 uM, Test compound concentration 10.0 uM.
Dual specificity mitogen-activated protein kinase kinase 1 (Homo sapiens), sequence (Q02750 whole entry): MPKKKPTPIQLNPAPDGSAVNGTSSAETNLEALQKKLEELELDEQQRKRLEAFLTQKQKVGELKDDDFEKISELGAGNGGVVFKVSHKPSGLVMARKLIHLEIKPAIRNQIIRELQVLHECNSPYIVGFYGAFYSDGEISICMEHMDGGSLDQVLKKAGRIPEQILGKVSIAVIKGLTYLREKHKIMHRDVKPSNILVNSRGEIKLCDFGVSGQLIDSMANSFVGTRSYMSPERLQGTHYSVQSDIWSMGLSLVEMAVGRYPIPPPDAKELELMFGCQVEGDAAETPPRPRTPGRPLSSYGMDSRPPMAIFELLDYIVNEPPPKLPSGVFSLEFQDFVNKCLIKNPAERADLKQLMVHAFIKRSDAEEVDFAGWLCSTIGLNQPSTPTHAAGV
Assay [3] addresses Tyrosine-protein kinase ABL1 (Homo sapiens) (UniProt P00519). As to the kind of experiment: Enzymatic radiometric [Km ATP] KinaseProfiler LeadHunter assay, kinase: Abl, catalogue number: 14-529KP The assay has been performed by Eurofins Discovery. As to conditions: ATP concentration 45.0 uM, Test compound concentration 10.0 uM.
Assay [4] has as its target T1, Interleukin-1 receptor-associated kinase 4 (Homo sapiens) (UniProt Q9NWZ3).
T1 sequence (whole entry): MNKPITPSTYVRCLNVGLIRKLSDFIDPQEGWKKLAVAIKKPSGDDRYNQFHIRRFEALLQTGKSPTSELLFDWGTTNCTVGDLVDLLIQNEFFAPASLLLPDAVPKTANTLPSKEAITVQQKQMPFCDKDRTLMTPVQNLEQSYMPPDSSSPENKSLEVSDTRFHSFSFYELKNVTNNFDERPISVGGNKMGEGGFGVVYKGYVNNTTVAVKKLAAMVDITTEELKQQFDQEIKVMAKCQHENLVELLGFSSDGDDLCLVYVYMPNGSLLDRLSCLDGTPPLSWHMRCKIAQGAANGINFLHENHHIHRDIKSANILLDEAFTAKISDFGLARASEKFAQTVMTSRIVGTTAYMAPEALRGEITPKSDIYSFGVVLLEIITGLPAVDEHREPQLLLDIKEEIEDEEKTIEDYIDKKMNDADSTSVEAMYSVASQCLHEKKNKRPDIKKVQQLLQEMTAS
As to the kind of experiment: Enzymatic radiometric [Km ATP] KinaseProfiler LeadHunter assay, kinase: IRAK4, catalogue number: 14-599KP The assay has been performed by Eurofins Discovery. The following applies: ATP concentration 200.0 uM, Test compound concentration 10.0 uM.

For assay [5], the target named is T2, Aurora kinase A (Homo sapiens) (UniProt O14965).
T2 sequence (whole entry): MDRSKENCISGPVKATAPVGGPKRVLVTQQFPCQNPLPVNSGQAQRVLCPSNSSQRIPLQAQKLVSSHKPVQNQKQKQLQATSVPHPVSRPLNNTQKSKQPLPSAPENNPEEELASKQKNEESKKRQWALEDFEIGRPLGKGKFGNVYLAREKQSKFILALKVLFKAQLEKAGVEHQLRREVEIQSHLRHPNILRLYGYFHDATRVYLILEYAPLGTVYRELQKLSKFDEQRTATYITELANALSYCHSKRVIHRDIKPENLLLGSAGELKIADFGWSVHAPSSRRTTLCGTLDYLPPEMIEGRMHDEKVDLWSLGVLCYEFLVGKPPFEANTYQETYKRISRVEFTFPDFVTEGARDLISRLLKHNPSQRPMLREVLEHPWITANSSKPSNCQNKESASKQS
Description: Enzymatic radiometric [Km ATP] KinaseProfiler LeadHunter assay, kinase: Aurora-A, catalogue number: 14-511KP The assay has been performed by Eurofins Discovery. As to conditions: ATP concentration 15.0 uM, Test compound concentration 10.0 uM.

Assay [6] deals with T3, MAP kinase-activated protein kinase 5 (Homo sapiens) (UniProt Q8IW41).
T3 sequence (whole entry): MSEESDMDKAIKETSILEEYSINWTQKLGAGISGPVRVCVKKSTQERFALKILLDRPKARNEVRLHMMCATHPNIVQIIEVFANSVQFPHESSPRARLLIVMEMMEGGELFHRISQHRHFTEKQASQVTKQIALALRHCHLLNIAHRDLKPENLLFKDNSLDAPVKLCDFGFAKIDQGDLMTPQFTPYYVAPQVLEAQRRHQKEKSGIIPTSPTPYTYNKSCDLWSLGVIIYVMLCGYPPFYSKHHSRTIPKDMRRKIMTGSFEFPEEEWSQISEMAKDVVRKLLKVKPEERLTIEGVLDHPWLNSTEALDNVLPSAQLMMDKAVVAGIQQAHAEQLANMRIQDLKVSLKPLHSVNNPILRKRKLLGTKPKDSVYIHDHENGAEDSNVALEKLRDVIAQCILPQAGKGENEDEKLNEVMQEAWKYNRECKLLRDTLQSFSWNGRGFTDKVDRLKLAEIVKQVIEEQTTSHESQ
Description: Enzymatic radiometric [Km ATP] KinaseProfiler LeadHunter assay, kinase: PRAK, catalogue number: 14-334KP The assay has been performed by Eurofins Discovery. As to conditions: ATP concentration 15.0 uM, Test compound concentration 10.0 uM.

For assay [7], the target named is Epidermal growth factor receptor (Homo sapiens) (UniProt P00533). As to the kind of experiment: Enzymatic radiometric [Km ATP] KinaseProfiler LeadHunter assay, kinase: EGFR, catalogue number: 14-531KP The assay has been performed by Eurofins Discovery. As to conditions: ATP concentration 10.0 uM, Test compound concentration 10.0 uM.
Epidermal growth factor receptor (Homo sapiens), sequence (P00533 whole entry): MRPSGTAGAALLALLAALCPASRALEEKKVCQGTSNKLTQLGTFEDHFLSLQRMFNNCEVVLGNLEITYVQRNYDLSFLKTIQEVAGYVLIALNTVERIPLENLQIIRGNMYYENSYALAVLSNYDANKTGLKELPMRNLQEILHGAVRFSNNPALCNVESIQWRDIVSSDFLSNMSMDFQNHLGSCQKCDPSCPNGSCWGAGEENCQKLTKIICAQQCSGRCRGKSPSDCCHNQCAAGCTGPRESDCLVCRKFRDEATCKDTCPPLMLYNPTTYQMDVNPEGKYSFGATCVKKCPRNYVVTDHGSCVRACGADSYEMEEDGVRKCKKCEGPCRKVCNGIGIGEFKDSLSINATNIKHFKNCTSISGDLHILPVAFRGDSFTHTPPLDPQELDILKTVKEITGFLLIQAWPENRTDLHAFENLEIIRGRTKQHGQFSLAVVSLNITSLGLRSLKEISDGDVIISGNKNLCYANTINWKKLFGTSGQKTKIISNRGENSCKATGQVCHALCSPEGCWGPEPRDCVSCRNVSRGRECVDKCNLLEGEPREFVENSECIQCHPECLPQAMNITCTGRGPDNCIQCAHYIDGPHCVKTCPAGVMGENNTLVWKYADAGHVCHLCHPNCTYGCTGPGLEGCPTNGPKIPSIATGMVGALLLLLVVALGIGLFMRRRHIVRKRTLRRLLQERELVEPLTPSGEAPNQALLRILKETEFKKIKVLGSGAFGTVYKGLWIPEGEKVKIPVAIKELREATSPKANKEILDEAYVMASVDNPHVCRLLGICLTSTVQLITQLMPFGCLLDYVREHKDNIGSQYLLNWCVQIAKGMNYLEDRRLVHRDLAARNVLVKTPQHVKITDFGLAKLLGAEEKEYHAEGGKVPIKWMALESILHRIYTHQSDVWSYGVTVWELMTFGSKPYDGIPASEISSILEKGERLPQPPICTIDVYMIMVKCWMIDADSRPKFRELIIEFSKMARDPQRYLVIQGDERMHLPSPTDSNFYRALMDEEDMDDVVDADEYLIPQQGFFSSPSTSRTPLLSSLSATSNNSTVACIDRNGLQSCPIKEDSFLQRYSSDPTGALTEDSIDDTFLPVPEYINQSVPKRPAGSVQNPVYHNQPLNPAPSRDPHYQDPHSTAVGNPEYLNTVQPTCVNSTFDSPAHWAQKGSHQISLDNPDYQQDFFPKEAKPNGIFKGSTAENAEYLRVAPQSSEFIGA
The target of assay [8] is T4, Serine/threonine-protein kinase 17A (Homo sapiens) (UniProt Q9UEE5).
T4 sequence (whole entry): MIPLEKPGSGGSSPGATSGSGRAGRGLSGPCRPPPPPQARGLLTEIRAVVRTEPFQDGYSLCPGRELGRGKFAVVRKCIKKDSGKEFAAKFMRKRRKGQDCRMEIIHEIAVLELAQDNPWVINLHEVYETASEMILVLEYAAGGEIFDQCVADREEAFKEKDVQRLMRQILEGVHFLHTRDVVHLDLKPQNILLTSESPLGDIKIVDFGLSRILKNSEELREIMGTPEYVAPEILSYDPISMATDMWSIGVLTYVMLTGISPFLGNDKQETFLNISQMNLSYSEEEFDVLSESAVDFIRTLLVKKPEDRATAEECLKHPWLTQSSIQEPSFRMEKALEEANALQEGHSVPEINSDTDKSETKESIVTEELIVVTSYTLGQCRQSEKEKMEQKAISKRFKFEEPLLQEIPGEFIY
As to the kind of experiment: Enzymatic radiometric [Km ATP] KinaseProfiler LeadHunter assay, kinase: DRAK1, catalogue number: 14-668KP The assay has been performed by Eurofins Discovery. As to conditions: ATP concentration 10.0 uM, Test compound concentration 10.0 uM.

The target in assay [9] is Phosphatidylinositol 4,5-bisphosphate 3-kinase catalytic subunit gamma isoform (Homo sapiens) (UniProt P48736). Description: Enzymatic radiometric [Km ATP] KinaseProfiler LeadHunter assay, kinase: PI3 Kinase (p120-gamma), catalogue number: 14-558KP The assay has been performed by Eurofins Discovery. The following applies: ATP concentration 100.0 uM, Test compound concentration 10.0 uM.
Phosphatidylinositol 4,5-bisphosphate 3-kinase catalytic subunit gamma isoform (Homo sapiens), sequence (P48736 whole entry, looked up, canonical isoform): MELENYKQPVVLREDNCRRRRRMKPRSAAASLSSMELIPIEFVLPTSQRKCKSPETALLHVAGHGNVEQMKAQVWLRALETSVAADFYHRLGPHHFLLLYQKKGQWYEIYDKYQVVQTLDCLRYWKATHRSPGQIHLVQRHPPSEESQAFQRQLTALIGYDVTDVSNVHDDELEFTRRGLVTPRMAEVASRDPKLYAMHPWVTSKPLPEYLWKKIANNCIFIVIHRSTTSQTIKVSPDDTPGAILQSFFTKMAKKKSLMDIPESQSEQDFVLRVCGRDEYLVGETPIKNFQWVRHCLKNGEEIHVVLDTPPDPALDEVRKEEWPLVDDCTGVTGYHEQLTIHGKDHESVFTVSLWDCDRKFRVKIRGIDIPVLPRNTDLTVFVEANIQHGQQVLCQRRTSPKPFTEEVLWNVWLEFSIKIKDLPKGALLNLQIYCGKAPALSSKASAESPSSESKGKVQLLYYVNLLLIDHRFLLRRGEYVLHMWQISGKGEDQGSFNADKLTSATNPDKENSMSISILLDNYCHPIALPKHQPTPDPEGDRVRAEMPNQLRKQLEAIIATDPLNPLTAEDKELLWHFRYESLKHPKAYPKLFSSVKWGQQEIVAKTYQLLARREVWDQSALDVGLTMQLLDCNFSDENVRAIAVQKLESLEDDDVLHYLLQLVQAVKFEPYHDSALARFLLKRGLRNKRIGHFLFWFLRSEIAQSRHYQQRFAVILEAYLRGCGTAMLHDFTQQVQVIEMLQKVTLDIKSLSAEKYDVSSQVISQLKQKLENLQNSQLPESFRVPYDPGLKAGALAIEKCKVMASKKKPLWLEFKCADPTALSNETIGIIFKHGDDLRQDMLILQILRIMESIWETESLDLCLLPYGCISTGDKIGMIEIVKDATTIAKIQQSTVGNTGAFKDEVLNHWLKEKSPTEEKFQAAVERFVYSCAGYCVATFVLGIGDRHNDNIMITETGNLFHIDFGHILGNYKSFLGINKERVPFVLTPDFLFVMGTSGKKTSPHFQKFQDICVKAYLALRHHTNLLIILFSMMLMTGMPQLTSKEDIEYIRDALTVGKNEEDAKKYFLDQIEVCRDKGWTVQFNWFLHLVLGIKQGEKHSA

Assay [10] has as its target 5'-AMP-activated protein kinase catalytic subunit alpha-1 (Homo sapiens) (UniProt Q13131). Description: Enzymatic radiometric [Km ATP] KinaseProfiler LeadHunter assay, kinase: AMPK-alpha1, catalogue number: 14-840KP The assay has been performed by Eurofins Discovery. As to conditions: ATP concentration 45.0 uM, Test compound concentration 10.0 uM.
In assay [11] the target is PI3-kinase p110-delta/p85-alpha (Homo sapiens) (UniProt P27986+O00329). As to the kind of experiment: Enzymatic radiometric [Km ATP] KinaseProfiler LeadHunter assay, kinase: PI3 Kinase (p110-delta/p85-alpha), catalogue number: 14-604KP The assay has been performed by Eurofins Discovery. The format is protein-complex assay. The following applies: ATP concentration 200.0 uM, Test compound concentration 10.0 uM.

PI3K p110 beta/p85 alpha (Homo sapiens), sequence (P27986 2-724 limits assumed): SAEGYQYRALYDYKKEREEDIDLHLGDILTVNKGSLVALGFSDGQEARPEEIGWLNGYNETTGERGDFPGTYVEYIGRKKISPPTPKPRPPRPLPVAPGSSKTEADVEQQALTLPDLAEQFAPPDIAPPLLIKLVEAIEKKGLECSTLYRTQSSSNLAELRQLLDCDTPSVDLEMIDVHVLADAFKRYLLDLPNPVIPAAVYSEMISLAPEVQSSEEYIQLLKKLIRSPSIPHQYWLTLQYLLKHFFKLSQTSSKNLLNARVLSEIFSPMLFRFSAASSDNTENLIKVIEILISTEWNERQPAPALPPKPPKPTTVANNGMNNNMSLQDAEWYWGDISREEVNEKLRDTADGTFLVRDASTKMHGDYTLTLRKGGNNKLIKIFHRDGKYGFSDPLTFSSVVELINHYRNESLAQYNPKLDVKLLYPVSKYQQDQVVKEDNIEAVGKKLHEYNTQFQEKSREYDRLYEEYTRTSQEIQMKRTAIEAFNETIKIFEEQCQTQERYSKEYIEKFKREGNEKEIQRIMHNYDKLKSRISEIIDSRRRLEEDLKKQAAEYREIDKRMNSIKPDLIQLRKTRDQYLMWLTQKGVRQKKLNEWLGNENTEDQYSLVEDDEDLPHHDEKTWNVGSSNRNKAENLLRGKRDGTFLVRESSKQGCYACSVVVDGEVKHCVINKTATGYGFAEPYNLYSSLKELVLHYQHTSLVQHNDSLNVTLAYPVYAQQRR
PI3K p110 beta/p85 alpha (Homo sapiens), sequence (P42338 whole entry partner): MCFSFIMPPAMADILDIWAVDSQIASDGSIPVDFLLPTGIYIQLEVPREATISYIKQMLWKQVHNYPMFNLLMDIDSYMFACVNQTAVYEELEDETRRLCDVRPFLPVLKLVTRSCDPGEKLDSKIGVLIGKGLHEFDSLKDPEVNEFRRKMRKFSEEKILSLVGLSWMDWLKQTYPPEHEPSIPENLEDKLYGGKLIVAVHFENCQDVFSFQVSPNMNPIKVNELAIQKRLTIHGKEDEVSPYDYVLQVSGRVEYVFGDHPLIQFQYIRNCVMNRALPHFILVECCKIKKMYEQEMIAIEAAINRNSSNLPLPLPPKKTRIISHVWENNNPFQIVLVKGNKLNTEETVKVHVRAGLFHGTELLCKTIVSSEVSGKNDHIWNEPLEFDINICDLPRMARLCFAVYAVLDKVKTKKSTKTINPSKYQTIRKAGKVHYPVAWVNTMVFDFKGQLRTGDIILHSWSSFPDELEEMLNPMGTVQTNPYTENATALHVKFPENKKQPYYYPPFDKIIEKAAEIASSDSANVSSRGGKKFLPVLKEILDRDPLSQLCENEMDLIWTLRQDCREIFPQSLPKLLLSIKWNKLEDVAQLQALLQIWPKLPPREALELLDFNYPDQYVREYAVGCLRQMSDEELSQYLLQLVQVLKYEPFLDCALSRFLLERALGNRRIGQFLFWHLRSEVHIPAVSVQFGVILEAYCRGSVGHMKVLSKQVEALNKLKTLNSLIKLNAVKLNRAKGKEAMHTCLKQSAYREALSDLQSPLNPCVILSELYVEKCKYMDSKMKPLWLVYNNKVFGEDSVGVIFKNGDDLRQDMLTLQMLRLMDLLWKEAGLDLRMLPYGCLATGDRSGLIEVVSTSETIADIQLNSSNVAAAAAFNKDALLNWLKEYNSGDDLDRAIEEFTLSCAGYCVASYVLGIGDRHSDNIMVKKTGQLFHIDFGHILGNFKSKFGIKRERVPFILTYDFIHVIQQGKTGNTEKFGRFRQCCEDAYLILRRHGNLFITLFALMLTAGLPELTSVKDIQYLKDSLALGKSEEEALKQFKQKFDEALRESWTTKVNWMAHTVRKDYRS
5'-AMP-activated protein kinase catalytic subunit alpha-1 (Homo sapiens), sequence (Q13131 whole entry, looked up): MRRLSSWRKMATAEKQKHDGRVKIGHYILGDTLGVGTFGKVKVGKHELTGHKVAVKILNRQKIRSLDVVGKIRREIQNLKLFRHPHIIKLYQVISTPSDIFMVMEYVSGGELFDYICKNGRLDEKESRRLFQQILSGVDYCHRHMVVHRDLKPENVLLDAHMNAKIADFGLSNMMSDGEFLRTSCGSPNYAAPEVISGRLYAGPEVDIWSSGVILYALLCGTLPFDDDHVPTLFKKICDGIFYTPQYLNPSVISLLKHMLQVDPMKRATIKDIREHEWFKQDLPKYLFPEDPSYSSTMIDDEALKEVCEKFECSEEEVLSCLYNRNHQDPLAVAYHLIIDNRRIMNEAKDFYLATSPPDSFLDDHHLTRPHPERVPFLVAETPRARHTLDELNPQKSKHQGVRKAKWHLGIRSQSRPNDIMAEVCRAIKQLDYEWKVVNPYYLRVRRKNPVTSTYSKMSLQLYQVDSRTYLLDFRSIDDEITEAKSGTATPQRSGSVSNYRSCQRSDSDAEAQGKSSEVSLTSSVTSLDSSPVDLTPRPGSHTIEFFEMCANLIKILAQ

As for `COc1ccc([C@H](Cc2nnn[nH]2)NC(=O)c2ncnc3[nH]ccc23)cc1`, the Activity in assay [1] was found to be 97%; in assay [2] it was 100%; in assay [3] it was 102%; in assay [4], 109%; in [5], 84%; in assay [6], 109%. Further, the Activity in [7] came to 97%; in assay [8], 111%; in [9] it was 88%; in assay [10], 97%; in assay [11] it was 97%.
As for `CC(C)[C@H](Nc1ncnc2[nH]c(-c3cnn(C)c3C#N)cc12)c1ccc2c(n1)OCCO2`, the Activity in assay [1] came to 86%; in assay [2], 97%; in assay [3] it was 57%; in assay [4], 106%; in assay [5] it was 53%; in assay [6] it was 84%. Moreover, the Activity was determined as 90% in assay [7]; 105% in assay [8]; 80% in [9]; 111% in assay [10]; 66% in assay [11].
`CC(C)[C@@H](Nc1ncnc2[nH]ccc12)c1ccc2c(c1)S(=O)(=O)CCC2`: the Activity in assay [1] was found to be 101%; in assay [2] it was 97%; in assay [3], 93%; in [4], 88%; in assay [5], 57%; in assay [6], 107%. Also, the Activity is 102% in assay [7]; 96% in assay [8]; 103% in assay [9]; 94% in assay [10]; 101% in [11].
On to `C[C@H](C(=O)O)[C@@H](NC(=O)c1ncnc2[nH]ccc12)c1ccc(Br)cc1`, for which the Activity in [1] amounted to 97%; in assay [2], 89%; in assay [3], 97%; in assay [4], 106%; in assay [5], 72%; in assay [6], 88%. Besides, the Activity in [7] came out at 93%; in [8], 98%; in assay [9], 97%; in assay [10], 93%; in assay [11] it was 97%.
For the compound `COc1ccc([C@@H](Cc2nnn[nH]2)NC(=O)c2ncnc3[nH]ccc23)cc1`, the Activity in assay [1] stood at 102%; in assay [2], 92%; in [3], 98%; in [4] it was 91%; in assay [5], 71%; in assay [6], 95%. Also, the Activity in assay [7] worked out at 96%; in assay [8] it was 111%; in assay [9], 89%; in assay [10], 101%; in assay [11], 99%.
Regarding `CC(C)[C@@H](Nc1ncnc2[nH]c(C(=O)N[C@@H]3CCN(C)C3)cc12)c1ccc2c(c1)S(=O)(=O)CCC2`, the Activity in [1] was determined as 99%; in [2], 107%; in assay [3] it was 100%; in assay [4], 105%; in assay [5], 97%; in [6], 111%. Further, the Activity in [7] was 102%; in assay [8] it was 105%; in [9], 97%; in assay [10], 107%; in assay [11], 99%.
In the case of `Cn1ncc(-c2cc3c(N[C@@H](c4ccc5c(n4)OCCO5)C(C)(C)C)ncnc3[nH]2)c1C#N`, the Activity came out at 91% in [1]; 98% in assay [2]; 81% in assay [3]; 132% in assay [4]; 95% in [5]; 86% in [6]. Also, the Activity in assay [7] stood at 99%; in [8], 108%; in [9] it was 88%; in assay [10], 109%; in [11] it was 73%.
For the compound `Cc1nn(C)cc1-c1cc2c(N[C@H](c3ccc4c(c3)S(=O)(=O)CCC4)C(C)C)ncnc2[nH]1`, the Activity in assay [1] worked out at 105%; in [2] it was 99%; in assay [3], 76%; in assay [4], 107%; in [5] it was 55%; in assay [6] it was 82%. Further, the Activity in assay [7] was 87%; in assay [8], 111%; in assay [9], 96%; in [10] it was 102%; in assay [11], 101%.
In the case of `CC(C)[C@H](Nc1ncnc2[nH]ccc12)c1ccc2c(c1)S(=O)(=O)CCC2`, the Activity is 100% in assay [1]; 94% in assay [2]; 105% in assay [3]; 112% in assay [4]; 51% in assay [5]; 102% in assay [6]. Moreover, the Activity in assay [7] was 95%; in [8] it was 117%; in [9] it was 98%; in assay [10] it was 104%; in [11], 99%.
Consider `CC(C)[C@@H](Nc1ncnc2[nH]c(-c3cnn(C)c3C#N)cc12)c1ccc2c(n1)OCCO2`, for which the Activity in assay [1] was 92% and 84%; in assay [2] it was 99% and 103%; in assay [3], 52% and 57%; in assay [4] it was 100% and 99%; in assay [5], 44% and 58%; in assay [6] it was 95% and 89%. Further, the Activity in assay [7] is 81% and 77%; in assay [8] it was 101% and 108%; in [9], 63% and 78%; in assay [10], 116% and 99%; in assay [11] it was 55% and 61%.
